# Measured values from patent publication US10752612B2, “PLK4 inhibitors” (LUDWIG INSTITUTE FOR CANCER RESEARCH LTD, priority 2015, dated 2020).
# Molecular target: T1, human Plk4 kinase domain (aa 2-275) (Homo sapiens, UniProt O00444)
# T1 construct: purified 6×His-tagged human Plk4 kinase domain (aa 2-275); 6xHis; made in house; host or cells: E. coli
# T1 sequence (O00444 2-275): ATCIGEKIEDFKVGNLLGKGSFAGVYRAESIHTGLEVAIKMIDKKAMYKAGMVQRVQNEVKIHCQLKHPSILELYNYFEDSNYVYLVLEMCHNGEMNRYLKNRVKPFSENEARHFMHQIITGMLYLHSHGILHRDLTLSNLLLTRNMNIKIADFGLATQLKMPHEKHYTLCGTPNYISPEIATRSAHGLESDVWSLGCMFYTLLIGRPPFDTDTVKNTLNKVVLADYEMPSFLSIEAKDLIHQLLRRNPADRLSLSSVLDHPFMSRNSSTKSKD
# Assay: Plk4 kinase assay (ADP-Glo)
# Assay type: biochemical
# Conditions: Table 1
# In short: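 Enzyme at 2.5-10 nM final, pH 8.0, reacted 4-16 hours at 25° C; ADP generation read by ADP-Glo luminescence. Ki derived from IC50 by Cheng-Prusoff or, for tight binders, Copeland formalism.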
row,Structure (SMILES),IC50
1,Cc1cc(Nc2nc(Sc3ccc(NC(=O)C4CC4)cc3)nc(N3CCN(C)C(C)C3)c2C)n[nH]1 (stereo not shown),< 1000 nM
2,Cc1cc(Nc2nc(Sc3ccc(NC(=O)C4CC4)cc3)nc(N3CCN(CCN(C)C)CC3)c2C)n[nH]1,< 1000 nM
3,Cc1cc(Nc2nc(Sc3ccc(NC(=O)C4CC4)cc3)nc(N(C)C)c2C)n[nH]1,< 1000 nM
4,CCN(CC)c1nc(Sc2ccc(NC(=O)C3CC3)cc2)nc(Nc2cc(C)[nH]n2)c1C,< 1000 nM
5,Cc1cc(Nc2nc(Sc3ccc(NC(=O)C4CC4)cc3)nc(N(C)CCN(C)C)c2C)n[nH]1,< 1000 nM
6,CSc1c(Nc2cc(C)[nH]n2)nc(Sc2ccc(NC(=O)C3CC3)cc2)nc1N1CCN(C)CC1,100 to 1000 nM
7,CC(=O)Nc1ccc(Sc2nc(Nc3cc(C)[nH]n3)c(C)c(N3CCCC3)n2)cc1,< 1000 nM
8,CC(=O)Nc1ccc(Sc2nc(Nc3cc(C)[nH]n3)c(C)c(N3CCCCCC3)n2)cc1,< 1000 nM
9,Cc1cc(Nc2nc(Sc3ccc(NC(=O)C4CC4)cc3)nc(N3CCN(C)CC3)c2Cl)n[nH]1,100 to 1000 nM
10,CC(=O)Nc1ccc(Sc2nc(Nc3cc(C)[nH]n3)c(C)c(N3CC=CCC3)n2)cc1,< 1000 nM
11,CC(=O)Nc1ccc(Sc2nc(Nc3cc(C)[nH]n3)c(C)c(N3CC=C(F)CC3)n2)cc1,< 1000 nM
12,Cc1ccc(Sc2nc(Nc3cc(C)[nH]n3)c(C)c(N3CCCCC3)n2)cc1,< 1000 nM
13,Cc1cc(Nc2nc(Sc3ccc(N)cc3)nc(N3CCCCC3)c2C)n[nH]1,< 1000 nM
14,CNC(=O)Nc1ccc(Sc2nc(Nc3cc(C)[nH]n3)c(C)c(N3CCCCC3)n2)cc1,< 1000 nM
15,COC(=O)Nc1ccc(Sc2nc(Nc3cc(C)[nH]n3)c(C)c(N3CCCCC3)n2)cc1,< 1000 nM
16,CC(=O)Nc1ccc(Sc2nc(Nc3cc(C)[nH]n3)c(C)c(N3CCC(F)(F)CC3)n2)cc1,< 1000 nM
17,CC(=O)Nc1ccc(Sc2nc(Nc3cc(C)[nH]n3)c(C)c(N3CCC(F)CC3)n2)cc1,< 1000 nM
18,CCOc1c(Nc2cc(C)[nH]n2)nc(Sc2ccc(NC(C)=O)cc2)nc1N1CCN(C2CCN(C)CC2)CC1,100 to 1000 nM
19,CC(=O)Nc1ccc(Sc2nc(Nc3cc(C)[nH]n3)c(Cl)c(N3CCCCC3)n2)cc1,< 1000 nM
20,CC(=O)Nc1ccc(Sc2nc(Nc3cc(C)[nH]n3)cc(N3CCCCC3)n2)cc1,< 1000 nM
21,CCN(C)c1nc(Sc2ccc(NC(C)=O)cc2)nc(Nc2cc(C)[nH]n2)c1OC,< 1000 nM
22,COc1c(Nc2cc(C)[nH]n2)nc(Sc2ccc(NC(C)=O)cc2)nc1N(C)C,< 1000 nM
23,COc1c(Nc2cc(C)[nH]n2)nc(Sc2ccc(NC(C)=O)cc2)nc1N1CCOCC1,< 1000 nM
24,COc1c(Nc2cc(C)[nH]n2)nc(Sc2ccc(NC(C)=O)cc2)nc1N1CCN(C(C)=O)CC1,< 1000 nM

row,Structure (SMILES),IC50
1,COCCN1CCN(c2nc(Sc3ccc(NC(C)=O)cc3)nc(Nc3cc(C)[nH]n3)c2OC)CC1,< 1000 nM
2,COc1c(Nc2cc(C)[nH]n2)nc(Sc2ccc(NC(C)=O)cc2)nc1N1CCC(C)CC1,100 to 1000 nM
3,COc1c(Nc2cc(C)[nH]n2)nc(Sc2ccc(NC(C)=O)cc2)nc1N(C)C(C)C,< 1000 nM
4,CC(=O)Nc1ccc(Sc2nc(Nc3cc(C)[nH]n3)c(C)c(N3CCCCC3C)n2)cc1 (stereo not shown),< 1000 nM
5,CCN1CCN(c2nc(Sc3ccc(NC(C)=O)cc3)nc(Nc3cc(C)[nH]n3)c2C)CC1,< 1000 nM
6,COCC(=O)N1CCN(c2nc(Sc3ccc(NC(C)=O)cc3)nc(Nc3cc(C)[nH]n3)c2OC)CC1,< 1000 nM
7,COc1c(Nc2cc(C)[nH]n2)nc(Sc2ccc(NC(C)=O)cc2)nc1N1CCC(F)(F)CC1,< 1000 nM
8,COc1c(Nc2cc(C)[nH]n2)nc(Sc2ccc(NC(C)=O)cc2)nc1N1CCC(F)CC1,< 1000 nM
9,COc1c(Nc2cc(C)[nH]n2)nc(Sc2ccc(NC(C)=O)cc2)nc1N1CCC(O)CC1,< 1000 nM
10,COc1c(Nc2cc(C)[nH]n2)nc(Sc2ccc(NC(C)=O)cc2)nc1N1CC=C(F)CC1,< 1000 nM
11,COc1c(Nc2cc(C)[nH]n2)nc(Sc2ccc(NC(C)=O)cc2)nc1N1CCC(N)CC1,< 1000 nM
12,COc1c(Nc2cc(C)[nH]n2)nc(Sc2ccc(NC(C)=O)cc2)nc1N1CCC(N(C)C)CC1,< 1000 nM
13,CCN1CCN(c2nc(Sc3ccc(NC(C)=O)cc3)nc(Nc3cc(C)[nH]n3)c2OC)CC1,< 1000 nM
14,COc1c(Nc2cc(C)[nH]n2)nc(Sc2ccc(NC(C)=O)cc2)nc1N1CCN(C(=O)C(C)C)CC1,< 1000 nM
15,COc1c(Nc2cc(C)[nH]n2)nc(Sc2ccc(S(=O)(=O)Cc3ccccc3)cc2)nc1N1CCN(C2CCN(C)CC2)CC1,< 1000 nM
16,COc1c(Nc2cc(C)[nH]n2)nc(Sc2ccc(S(=O)(=O)Cc3ccccc3)cc2)nc1N1CCC(N2CCN(C)CC2)CC1,< 1000 nM
17,CC(=O)Nc1ccc(Sc2nc(Nc3cc(C)[nH]n3)c(C)c(N3CCN(C(C)C)CC3)n2)cc1,< 1000 nM
18,CC(=O)Nc1ccc(Sc2nc(Nc3cc(C)[nH]n3)c(C)c(N3CCN(C(=O)C(C)C)CC3)n2)cc1,< 1000 nM
19,CC(=O)Nc1ccc(Sc2nc(Nc3cc(C)[nH]n3)c(C)c(N3CCN(C(=O)CN(C)C)CC3)n2)cc1,< 1000 nM
20,CC(=O)Nc1ccc(Sc2nc(Nc3cc(C)[nH]n3)c(C)c(N3CCC(C(C)=O)CC3)n2)cc1,< 1000 nM
21,COc1c(Nc2cc(C)[nH]n2)nc(Sc2ccc(NC(C)=O)cc2)nc1N1CCN(C(C)C)CC1,< 1000 nM
22,CNC(=O)Nc1ccc(Sc2nc(Nc3cc(C)[nH]n3)c(C)c(N3CCC(O)CC3)n2)cc1,< 1000 nM
23,COc1c(Nc2cc(C)[nH]n2)nc(Sc2ccc(S(=O)(=O)Cc3ccccc3)cc2)nc1N1CCN(CCN2CCCC2)CC1,< 1000 nM

# Other lines, results leading:
row,IC50,Structure (SMILES)
1,< 1000 nM,CCN(C)c1nc(Sc2ccc(NC(=O)C3CC3)cc2)nc(Nc2cc(C)[nH]n2)c1C
2,< 1000 nM,Cc1cc(Nc2nc(Sc3ccc(NC(=O)C4CC4)cc3)nc(Cl)c2C)n[nH]1
3,< 1000 nM,Cc1cc(Nc2nc(Sc3ccc(NC(=O)C4CC4)cc3)nc(NCCN(C)C)c2C)n[nH]1
4,< 1000 nM,Cc1cc(Nc2nc(Sc3ccc(NC(=O)C4CCCC4)cc3)nc(N(C)C(C)C)c2C)n[nH]1
5,< 1000 nM,COCC(=O)N1CCN(c2nc(Sc3ccc(NC(=O)C4CCCC4)cc3)nc(Nc3cc(C)[nH]n3)c2C)CC1
6,< 1000 nM,Cc1cc(Nc2nc(Sc3ccc(NC(=O)C4CCCC4)cc3)nc(N3CCCCC3)c2C)n[nH]1
7,100 to 1000 nM,CCN(CC)c1nc(Sc2ccc(NC(=O)C3CCCC3)cc2)nc(Nc2cc(C)[nH]n2)c1C
8,< 1000 nM,CCN(C)c1nc(Sc2ccc(NC(=O)C3CCCC3)cc2)nc(Nc2cc(C)[nH]n2)c1C
9,< 1000 nM,Cc1cc(Nc2nc(Sc3ccc(NC(=O)C4CCCC4)cc3)nc(N(C)C)c2C)n[nH]1
10,< 1000 nM,CC(=O)Nc1ccc(Sc2nc(Nc3cc(C)[nH]n3)c(C)c(N3CCC(O)CC3)n2)cc1
11,< 1000 nM,CC(=O)Nc1ccc(Sc2nc(Nc3cc(C)[nH]n3)c(C)c(N3CCC(C)CC3)n2)cc1
12,< 1000 nM,CC(=O)Nc1ccc(Sc2nc(Nc3cc(C)[nH]n3)c(Cl)c(N3CCN(C)CC3)n2)cc1
13,< 1000 nM,CSc1nc(Nc2cc(C)[nH]n2)c(C)c(N2CCCCC2)n1
14,< 1000 nM,Cc1cc(Nc2nc(Sc3ccccc3)nc(N3CCCCC3)c2C)n[nH]1
15,< 1000 nM,COc1c(Nc2cc(C)[nH]n2)nc(Sc2ccc(S(=O)(=O)Cc3ccccc3)cc2)nc1N1CCC(CCN2CCN(C)CC2)CC1
16,< 1000 nM,COc1c(Nc2cc(C)[nH]n2)nc(Sc2ccc(S(=O)(=O)Cc3ccccc3)cc2)nc1N1CCN(CCN2CCCCCC2)CC1
17,< 1000 nM,COc1c(Nc2cc(C)[nH]n2)nc(Sc2ccc(NC(C)=O)cc2)nc1N1CCN(C2CCN(C)CC2)CC1
18,< 1000 nM,COc1c(Nc2cc(C)[nH]n2)nc(Sc2ccc(NC(C)=O)cc2)nc1N1CCN(C)CC1
19,< 1000 nM,Cc1cc(Nc2nc(Sc3ccc(N(C)C)cc3)nc(N3CCCCC3)c2C)n[nH]1

row,IC50,Structure (SMILES)
1,< 1000 nM,COc1c(Nc2cc(C)[nH]n2)nc(Sc2ccc(NC(C)=O)cc2)nc1N1CCNCC1
2,< 1000 nM,CCN(CC)c1nc(Sc2ccc(NC(C)=O)cc2)nc(Nc2cc(C)[nH]n2)c1OC
3,< 1000 nM,COc1c(Nc2cc(C)[nH]n2)nc(Sc2ccc(NC(C)=O)cc2)nc1N1CCCC1
4,100 to 1000 nM,COc1c(Nc2cc(C)[nH]n2)nc(Sc2ccc(NC(C)=O)cc2)nc1N1CCCCCC1
5,< 1000 nM,COc1c(Nc2cc(C)[nH]n2)nc(Sc2ccc(NC(C)=O)cc2)nc1N1CC=CCC1
6,< 1000 nM,COc1c(Nc2cc(C)[nH]n2)nc(Sc2ccc(NC(C)=O)cc2)nc1N1CCC(C(C)=O)CC1
7,< 1000 nM,CC(=O)Nc1ccc(Sc2nc(Nc3cc(C)[nH]n3)c(C)c(N3CCC(CCN(C)C)CC3)n2)cc1
8,100 to 1000 nM,COc1c(Nc2cc(C)[nH]n2)nc(Sc2ccc(NC(C)=O)cc2)nc1N1CCCCC1C (stereo not shown)
9,< 1000 nM,CCC(=O)N1CCN(c2nc(Sc3ccc(NC(C)=O)cc3)nc(Nc3cc(C)[nH]n3)c2OC)CC1
10,< 1000 nM,CSc1nc(Nc2cc(C)[nH]n2)c(C)c(N2CCC(O)CC2)n1
11,< 1000 nM,CSc1nc(Nc2cc(C)[nH]n2)c(C)c(N2CCOCC2)n1
12,< 1000 nM,CCC(=O)N1CCN(c2nc(Sc3ccc(NC(C)=O)cc3)nc(Nc3cc(C)[nH]n3)c2C)CC1
13,< 1000 nM,CNCC(=O)N1CCN(c2nc(Sc3ccc(NC(C)=O)cc3)nc(Nc3cc(C)[nH]n3)c2C)CC1
14,< 1000 nM,CNC1CCN(c2nc(Sc3ccc(NC(C)=O)cc3)nc(Nc3cc(C)[nH]n3)c2C)CC1
15,< 1000 nM,CNCC(=O)N1CCN(c2nc(Sc3ccc(NC(C)=O)cc3)nc(Nc3cc(C)[nH]n3)c2OC)CC1
16,< 1000 nM,COc1c(Nc2cc(C)[nH]n2)nc(Sc2ccc(NC(C)=O)cc2)nc1N1CCN(C(=O)CN(C)C)CC1
17,< 1000 nM,Cc1cc(Nc2nc(Sc3ccccc3)nc(N(C)C(C)C)c2C)n[nH]1
18,< 1000 nM,CNC(=O)Nc1ccc(Sc2nc(Nc3cc(C)[nH]n3)c(C)c(N3CCOCC3)n2)cc1
19,< 1000 nM,Cc1cc(Nc2nc(Sc3ccccc3)nc(N3CCC(O)CC3)c2C)n[nH]1
